Assay results taken from patent US4055640A, “Compositions and methods for controlling the growth of bacteria, fungi and algae using certain derivatives of N-(2,2-dichlorovinyl)salicylamides” (Nippon Kayaku Co., Ltd., priority 1975, dated 1977).
Counter-ions that a name gives are not always drawn.

What was measured:
summer orange seedlings = assay: Phytotoxicity on summer orange seedlings (Experimental Example 6); assay type: in vivo; conditions: 1,000 ppm
Cladosporium harbarum [1] = assay: Minimum inhibitory amount, dilution methods (Example 24); assay type: cell-based; conditions: (1) potato-dextrose agar dilution method
Source text: (§1) Bactericidal activity and fungicidal activity of the active compounds of the present invention were examined by potato-dextrose agar dilution method, or [2] glucose bouillon medium dilution method. The results are shown in Table 10 below as the minimum inhibitory concentration (the minimum concentration of active compound found to produce 100% control of the test bacteria and fungi).

Escherichia coli [2] = assay: as above; assay type: cell-based; conditions: (2) glucose bouillon medium dilution method
Source text: as §1

Staphylococcus aureus [3] = assay: as above; assay type: cell-based; conditions: (2) glucose bouillon medium dilution method
Source text: as §1

Penicillium Citrinum [4] = assay: as above; assay type: cell-based; conditions: (1) potato-dextrose agar dilution method
Source text: as §1

Bacillus subtilis [5] = assay: as above; assay type: cell-based; conditions: (2) glucose bouillon medium dilution method
Source text: as §1

Aspergillus niger [6] = assay: as above; assay type: cell-based; conditions: (1) potato-dextrose agar dilution method
Source text: as §1

[7] = test system: Bacteria, fungi and slime; assay: Inhibition of bacteria, fungi and slime in use (Example 23); conditions: water soluble concentrate; 10-20 ppm in water, 0.01-0.1% in pastes
Experimental: Before application, the concentrate was diluted 500-1000 times with water and sprayed on the inside of cotes to prevent the growth of bacteria and fungi.
The solution was added to water in circular water systems to inhibit the growth of slime. The concentration of Compound No. 21 in the water was 10-20 ppm.
An amount of 0.01-0.1% of Compound No. 21 as the solution was added to pastes or binding agents to prevent rottenness of them.

[8] = test system: seedlings of kidney beans (variety: Orient); assay: Phytotoxicity on kidney beans (Experimental Example 5); assay type: in vivo; conditions: 1,000 ppm
green algae [9] = assay: Degree of propagation on slime test boards (Example 27); assay type: cell-based; conditions: same method, shaking culture for 2 days
Experimental: (§2) Zero point zero two (0.02) part of active compounds in the form of 10% water soluble concentrate which was prepared by Example 23 was added into 100 parts of Waxman's liquid medium. Peices of Wood iron (hereafter referred to as the slime test boards) were soaked into the Waxman's liquid medium. The bacteria which were gathered from circular water system were inoculated upon the Waxman's liquid medium and incubated at 27°-34° C by shaking culture for 2 days. The degree of propagation of the bacteria on the slime test boards was examined.
(§3) Thegrowth-inhibiting activity of active compounds against the fungi and the green algae was also examined by the same method as mentioned above.
(§4) The degree of propagation of the bacteria, fungi or green algae on the test boards is defined in terms of the following symbols.

[10] = test system: bacteria gathered from circular water system; assay: as above; assay type: cell-based; conditions: shaking culture for 2 days
Experimental: as §2, §3, §4

fungi [11] = assay: as above; assay type: cell-based; conditions: same method, shaking culture for 2 days
Experimental: as §2, §3, §4

[12] = test system: botrytis cinerea (gray mold); assay: Exterminating test on gray mold of tomato (Experimental Example 5); assay type: in vivo; design: scale not given here; conditions: 1,000 ppm, 48 hours after inoculation, kidney bean leaves
Experimental: Exterminating test on gray mold of tomato The seedlings of kidney beans (variety: Orient) of 5-6 leaves stage were employed in this test. Eighty percent (80%) wettable powder of the present invention was diluted with water and sprayed over the seedlings in an amount of 10 ml per pot. The leaves were cut from the plant at 24 hours after spraying, and placed in the petri dishes (12 cm in diameter). Thereafter disks (5 mm in diameter) were cut with a cork borer from potato dextrose agar on which the pathogen (botrytis cinerea) was cultured. The disks were placed on the leaves. The dishes were placed in such a moistural condition as to cause the pathogen to propagate. Thiophanate methyl 70% wettable powder on the market was used as a control and tested by the same method. After forty eight (48) hours after inoculation, diameters of the lesions were observed, and an "Effect Index" was calculated as follows; [formula]

Cladosporium harbarum [13] = assay: Minimum inhibitory concentration, dilution methods (Example 14); assay type: cell-based; conditions: (1) potato-dextrose agar dilution method
Source text: as §1, with “Bacteriocidal activity” for “Bactericidal activity”, “method, [2] waxman's liquid medium dilution method” for “method,”, “or [3]” for “or [2]”, “Table 4” for “Table 10”

Pseudomonas fluorescens = assay: as above; assay type: cell-based; conditions: (1) potato-dextrose agar dilution method
Source text: as §1, with “Bacteriocidal activity” for “Bactericidal activity”, “method, [2] waxman's liquid medium dilution method” for “method,”, “or [3]” for “or [2]”, “Table 4” for “Table 10”

Escherichia coli [14] = assay: as above; assay type: cell-based; conditions: (3) glucose bouillon medium dilution method
Source text: as §1, with “Bacteriocidal activity” for “Bactericidal activity”, “method, [2] waxman's liquid medium dilution method” for “method,”, “or [3]” for “or [2]”, “Table 4” for “Table 10”

Staphylococcus aureus [15] = assay: as above; assay type: cell-based; conditions: (3) glucose bouillon medium dilution method
Source text: as §1, with “Bacteriocidal activity” for “Bactericidal activity”, “method, [2] waxman's liquid medium dilution method” for “method,”, “or [3]” for “or [2]”, “Table 4” for “Table 10”

Penicillium Citrinum [16] = assay: as above; assay type: cell-based; conditions: (1) potato-dextrose agar dilution method
Source text: as §1, with “Bacteriocidal activity” for “Bactericidal activity”, “method, [2] waxman's liquid medium dilution method” for “method,”, “or [3]” for “or [2]”, “Table 4” for “Table 10”

Bacillus subtilis [17] = assay: as above; assay type: cell-based; conditions: (3) glucose bouillon medium dilution method
Source text: as §1, with “Bacteriocidal activity” for “Bactericidal activity”, “method, [2] waxman's liquid medium dilution method” for “method,”, “or [3]” for “or [2]”, “Table 4” for “Table 10”

Aspergillus niger [18] = assay: as above; assay type: cell-based; conditions: (1) potato-dextrose agar dilution method
Source text: as §1, with “Bacteriocidal activity” for “Bactericidal activity”, “method, [2] waxman's liquid medium dilution method” for “method,”, “or [3]” for “or [2]”, “Table 4” for “Table 10”

[19] = test system: Aspergillus niger, Penicillium citrinum, Cladosporium harbarum and chaetomium globosum; assay: Degree of growth inhibition of fungi on treated beach plates (Example 17); assay type: cell-based; design: scale not given here; conditions: numerical rating, 2 weeks
Experimental: The emulsifiable concentrates which were prepared by Example 10 were diluted with water 400 times and 800 times to form emulsions.
The square plates of beach of which a side was 5 cm long and thickness was 5 mm were dipped into the emulsion for 2 minutes and dried for 24 hours at room temperature.
The square plates were placed on the surface of agar plates. The suspensions which contained spores of Aspergillus niger, Penicillium citrinum, Cladosporium harbarum and chaetomium globosum were respectively sprayed on the agar plates and the square plates.
The test fungi were cultivated in the incubator at the humidity of 95% and the temperature of 28° C for 2 weeks.
The degree of growth inhibition is defined in terms of the following numerical ratings.

green algae [20] = assay: Degree of propagation on slime test boards (Example 19); assay type: cell-based; design: key: -: no propagation; +: the area of propagation is 1 - 25% on the slime test boards.; ++: the area of propagation is 26 - 50% on the slime test boards.; +++: the area of propagation is 51 - 75% on the slime test boards.; ++++: the area of propagation is 76 - 100% on the slime test boards
Experimental: as §2, with “13” for “23”, “Pieces” for “Peices”, “wood and” for “Wood”, “27° C-34°” for “27°-34°”, “culture.” for “culture for 2 days.”
(§5) The growth-inhibiting activity of active compounds against the fungi and the green algae was also examined by the same method as mentioned above.
(§6) The degree of propagation of the bacteria, fungi or green algae on the slime test boards is defined in terms of the following symbols.

[21] = test system: bacteria gathered from circular water system; assay: as above; assay type: cell-based; design: key: -: no propagation; +: the area of propagation is 1 - 25% on the slime test boards.; ++: the area of propagation is 26 - 50% on the slime test boards.; +++: the area of propagation is 51 - 75% on the slime test boards.; ++++: the area of propagation is 76 - 100% on the slime test boards
Experimental: as §2, with “13” for “23”, “Pieces” for “Peices”, “wood and” for “Wood”, “27° C-34°” for “27°-34°”, “culture.” for “culture for 2 days.”
as §5, §6

fungi [22] = assay: as above; assay type: cell-based; design: key: -: no propagation; +: the area of propagation is 1 - 25% on the slime test boards.; ++: the area of propagation is 26 - 50% on the slime test boards.; +++: the area of propagation is 51 - 75% on the slime test boards.; ++++: the area of propagation is 76 - 100% on the slime test boards
Experimental: as §2, with “13” for “23”, “Pieces” for “Peices”, “wood and” for “Wood”, “27° C-34°” for “27°-34°”, “culture.” for “culture for 2 days.”
as §5, §6

[23] = test system: cucumber (variety: Azumamidori); assay: Phytotoxicity on cucumber (Experimental Example 3); assay type: in vivo; conditions: 1,000 ppm
[24] = test system: Rhizoctonia solani (damping-off of cucumber); assay: Exterminating test on damping-off of cucumber (Experimental Example 3); assay type: in vivo; conditions: Rhizoctonia solani, 240 h; 1,000 ppm, soil drench 50 ml per pot, 10 days; read-out: Percentage of healthy seedlings
Method in brief: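 Pots of field soil infested with Rhizoctonia solani (5 g/pot), sown with 10 Azumamidori cucumber seeds, then drenched with 50 ml aqueous suspension of 80% wettable powder and kept in greenhouse. PCNB 50% wettable powder as control. Percentage of healthy seedlings scored 10 days after inoculation.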

O=C(NC=C(Cl)Cl)c1cc(Cl)ccc1O [Compound No. 21, sodium salt of N-(2'-2'-dichlorovinyl)-5-chlorosalicylamide]
Phytotoxicity (summer orange seedlings): Nil | Minimum inhibitory amount (Cladosporium harbarum [1]): 5 µg/mL | Minimum inhibitory amount (Escherichia coli [2]): 40 µg/mL | Minimum inhibitory amount (Staphylococcus aureus [3]): 2.5 µg/mL | Minimum inhibitory amount (Penicillium Citrinum [4]): 5 µg/mL | Minimum inhibitory amount (Bacillus subtilis [5]): 2.5 µg/mL | Minimum inhibitory amount (Aspergillus niger [6]): 10 µg/mL | inhibition of bacteria, fungi and slime [7]: inhibited for a long time | Phytotoxicity [8]: Nil | Degree of propagation (green algae [9]): - | Degree of propagation [10]: - | Degree of propagation (fungi [11]): - | Effect Index [12]: 80

O=C(NC=C(Cl)Cl)c1ccccc1O [Compound No. 23]
Phytotoxicity (summer orange seedlings): Nil | minimum inhibitory concentration (Cladosporium harbarum [13]): 5 mc g/ml | minimum inhibitory concentration (Pseudomonas fluorescens): 13 mc g/ml | minimum inhibitory concentration (Escherichia coli [14]): 60 mc g/ml | minimum inhibitory concentration (Staphylococcus aureus [15]): 10 mc g/ml | minimum inhibitory concentration (Penicillium Citrinum [16]): 10 mc g/ml | minimum inhibitory concentration (Bacillus subtilis [17]): 5 mc g/ml | minimum inhibitory concentration (Aspergillus niger [18]): 10 mc g/ml | Degree of growth inhibition ([19]; 0.0125 %): 3 | Degree of growth inhibition ([19]; 0.025 %): 3 | Degree of propagation (green algae [20]; 7th day): - | Degree of propagation (green algae [20]; 14th day): - | Degree of propagation (green algae [20]; 21st day): + (the area of propagation is 1 - 25% on the slime test boards.) | Degree of propagation ([21]; 7th day): - | Degree of propagation ([21]; 14th day): - | Degree of propagation ([21]; 21st day): + (the area of propagation is 1 - 25% on the slime test boards.) | Degree of propagation (fungi [22]; 7th day): - | Degree of propagation (fungi [22]; 14th day): - | Degree of propagation (fungi [22]; 21st day): -

O=[N+]([O-])c1c(Cl)c(Cl)c(Cl)c(Cl)c1Cl [PCNB, pentachloronitro benzene, reference compound]
Phytotoxicity [23]: Nil | pest or weed control at 1000 ppm [24]: 45%
